# Laboratory results as given in publication PMC9666555, “Genuine selective caspase-2 inhibition with new irreversible small peptidomimetics” (Cell Death & Disease, 2022).
# Key:
# [1] = system: Casp2-mediated Mdm-2 cleavage in H9 hESC-derived NPCs; assay: Reversine-induced Mdm-2 cleavage in neural progenitor cells (WB); type: cell-based, human; conditions: 1 µM reversine 24 h
# Method: The H9 human embryonic stem cell (hESC) line (WA09, WiCell) was maintained on mouse embryonic fibroblasts (MTI-GlobalStem) feeder culture in HUESM medium (20% KSR in KO-DMEM, 1% MEM-NEAA, 1% Pen–Strep, 0.1 mM 2 mercaptoethanol (Life technologies) 10 ng ml^−1 FGF2 (Biotechne), and differentiated into NPCs as previously described [Supplementary ref. 10] [Supplementary ref. 11]. In brief, hESC colonies were lifted with collagenase IV (1 mg ml^−1 in DMEM) at 37 °C for 1–2 h. Colonies lifted from the plate were transferred to a non-adherent plate (Corning) to generate embryoid bodies (EBs) for 1 day in N2/B27 medium (DMEM/F12-GlutaMAX, 1× N2 supplement, 1× B27 no RA supplement; Life). EBs were cultured in suspension in N2/B27 medium with dual-SMAD inhibitors (0.1 µM LDN193189 and 10 µM SB431542) for 7 days. […]
# H9-hNPCs were pretreated (or not) for 1 h with LJ3a and treated with 1 µM reversine (#10004412, Cayman Chemicals, Ann Arbor, MI) for 24 h. […] After the BCA assay for protein quantification, samples were subject to polyacrylamide gel electrophoresis-sodium dodecyl sulfate analysis (60 min, 200 V, 12% bis–tris 12-well gels), followed by transfer to nitrocellulose membrane (60 min, 30 V). […] Protein bands were quantified using Image Studio Lite Quantification software (LI-COR®, Lincoln, NE). […]
# recorded on the LJ3a sample. […]
# Cathepsin-B = Cathepsin-B (Homo sapiens, UniProt P07858); assay: Non-caspase enzyme assay, Cathepsin-B; type: biochemical; conditions: concentrations up to 10 µM
# Method: Stock solutions were stored at −80 °C. […]
# Non-caspase enzyme assays
# The human pro- kallikrein-1 (pro-hK1) was activated in a buffer containing: Tris-HCl 50 mM, CaCl2 10 mM, NaCl 150 mM, Brij-35 0,05% pH 7,5. Human pro-kallikrein-6 and -8 (pro-hK6 and 8 were activated using Lysyl-endopeptidase (Wako- BioProducts®) at a 1/500 weight ratio, in a buffer containing 50 mM Tris and 0,05% Brij-35 (pH 8). Kinetics using non-caspase enzymes for selectivity studies were done according to the following conditions.
# Enzymes Substrates Buffers
# Cathepsine B (0.2 nM) z-RR-AMC 20 µM Acétate de sodium 0,1 M; EDTA 1mM ; […]
# Cathepsine L (1.2 nM) RLR-AMC 25 µM Acétate de sodium 0,1 M; EDTA 1mM ; […]
# Cathepsine D (0.1 nM) Mca-Gly-Ly s-Pro-Ile-Leu-Phe-Phe- Citrate de Sodium 0,1 M; EDTA 2 mM ; Arg-Leu-Lys(Dnp)-D-Arg-NH2 10 µM Brij-35 0,01%; pH 4 hK1 (4 nM) Boc-VPR-AMC 100µM Tris 50mM; Citrate 1M; Brij-35 0.05%; pH7 hK6 (2 nM ) Boc-QAR -AMC 100 µM Tris 50mM; Citrate 1M; Brij-35 0.05%; pH7 hK8 (1 nM) Boc-VPR-AMC 100µM Tris 50mM; Citrate 1M; Brij-35 0.05%; pH7
# Thrombine (10 mU/mL) Boc-VPR-AMC 100µM Tris 50mM; Citrate 1M; Brij-35 0.05%; pH7 Plasmine (4 nM ) Boc-QAR -AMC 100µM Tris 50mM; Citrate 1M; Brij-35 0.05%; pH7 Trypsine (0.1 nM) Boc-QAR -AMC 100µM Tris 50mM; Citrate 1M; Brij-35 0.05%; pH7
compound,measurement,setting,value
CC(C)[C@H](NC(=O)c1ccc2ccccc2n1)C(=O)N[C@@H](CC(=O)O)C(=O)N[C@H](C(=O)N1CC[C@H](CC(C)(C)C)[C@@H]1C(=O)NC(CC(=O)O)C(=O)COc1c(F)cccc1F)C(C)C (stereo partly drawn) [LJ3a],effect on reversine-induced Mdm-2 cleavage,[1]; 10 µM,completely abolished
same,effect on reversine-induced Mdm-2 cleavage,[1]; submicromolar concentrations,significantly prevented
same,effect on Cathepsin-B,Cathepsin-B,very limited or no effect
